By melting point is commonly meant the temperature of the solid-liquid transition.

Structures can show the parent of a compound that is named as a salt.

In turn, `O=C(O)Cc1c(C(=O)c2ccc(Cl)cc2)[nH]c2cc(Cl)ccc12` (as salt: malonate) [Example 9, [6-Chloro-2-(4-chlorobenzoyl)-1H-indol-3-yl]acetic Acid] registered a melting point of 189 to 190 °C.

Take `O=C(O)Cc1c(C(=O)c2ccccc2)[nH]c2cc(Cl)ccc12` [Example 2, (2-Benzoyl-6-chloro-1H-indol-3-yl)acetic Acid]: the melting point is 183 to 186 °C.

For the molecule `O=C(O)Cc1c(C(=O)c2ccc(Cl)cc2)[nH]c2cc(Cl)ccc12` [Example 9, [6-Chloro-2-(4-chlorobenzoyl)-1H-indol-3-yl]acetic Acid], the melting point fell in the range of 181 to 183 °C.

`Cc1ccc(C(=O)c2[nH]c3cc(Cl)ccc3c2CC(=O)O)nc1` [Example 32, [6-Chloro-2-(5-methylpyridine-2-carbonyl)-1H-indol-3-yl]acetic Acid] registered a melting point of 235 to 238 °C.

Consider `Cc1ccnc(C(=O)c2[nH]c3ccc(Cl)cc3c2CC(=O)O)c1` [Example 36, [5-Chloro-2-(4-methylpyridine-2-carbonyl)-1H-indol-3-yl]acetic Acid], for which the melting point was 230 to 231 °C.

Take `Cc1cccc(C(=O)c2[nH]c3ccc(Cl)cc3c2CC(=O)O)n1` [Example 38, [5-Chloro-2-(6-methylpyridine-2-carbonyl)-1H-indol-3-yl]acetic Acid]: the melting point fell in the range of 225 to 226 °C.

In the case of `O=C(O)Cc1c(C(=O)c2nccs2)[nH]c2ccc(Cl)cc12` [Example 41, [5-Chloro-2-(thiazole-2-carbonyl)-1H-indol-3-yl]acetic Acid], the melting point fell in the range of 230 to 231 °C.

Consider `CCc1ccnc(C(=O)c2[nH]c3cc(Cl)ccc3c2CC(=O)O)c1` [Example 58, [6-Chloro-2-(4-ethylpyridine-2-carbonyl)-1H-indol-3-yl]acetic Acid], for which the melting point was 215 to 216 °C (dec.).

`CCc1ccnc(C(=O)c2[nH]c3ccc(Cl)cc3c2CC(=O)O)c1` [Example 60, [5-Chloro-2-(4-ethylpyridine-2-carbonyl)-1H-indol-3-yl]acetic Acid] had a melting point of 217 to 218 °C.

Molecule `CC(C)c1ccnc(C(=O)c2[nH]c3ccc(Cl)cc3c2CC(=O)O)c1` [Example 64, [5-Chloro-2-(4-isopropylpyridine-2-carbonyl)-1H-indol-3-yl]acetic Acid] had a melting point of 227 to 228 °C.

Consider `CC(C)(C)c1ccnc(C(=O)c2[nH]c3cc(Cl)ccc3c2CC(=O)O)c1` [Example 70, [2-(4-tert-Butylpyridine-2-carbonyl)-6-chloro-1H-indol-3-yl]acetic Acid], for which the melting point fell in the range of 203 to 205 °C.

The molecule `CC(C)(C)c1ccnc(C(=O)c2[nH]c3ccc(Cl)cc3c2CC(=O)O)c1` [Example 72, [2-(4-tert-Butylpyridine-2-carbonyl)-5-chloro-1H-indol-3-yl]acetic Acid] showed a melting point of 209 to 211 °C.

In turn, `Cc1cccnc1C(=O)c1[nH]c2cc(Cl)ccc2c1CC(=O)O` [Example 74, [6-Chloro-2-(3-methylpyridine-2-carbonyl)-1H-indol-3-yl]acetic Acid] registered a melting point of 195 to 196 °C.

Take `Cc1cccc(C(=O)c2[nH]c3cc(Cl)ccc3c2CC(=O)O)n1` [Example 78, [6-Chloro-2-(6-methylpyridine-2-carbonyl)-1H-indol-3-yl]acetic Acid]: the melting point was in the range of 230 to 231 °C.

`Cc1ccc(C(=O)c2[nH]c3ccc(Cl)cc3c2CC(=O)O)nc1` [Example 80, [5-Chloro-2-(5-methylpyridine-2-carbonyl)-1H-indol-3-yl]acetic Acid] registered a melting point of 247 to 248 °C.

On to `O=C(O)Cc1c(C(=O)c2ccc(Cl)cn2)[nH]c2ccc(Cl)cc12` [Example 86, [5-Chloro-2-(5-chloropyridine-2-carbonyl)-1H-indol-3-yl]acetic Acid], for which the melting point is 259 to 260 °C.

As to `O=C(O)Cc1c(C(=O)c2ccc(Cl)cn2)[nH]c2cc(Cl)ccc12` [Example 88, [6-Chloro-2-(5-chloropyridine-2-carbonyl)-1H-indol-3-yl]acetic Acid], the melting point was in the range of 242 to 244 °C.

The molecule `O=C(O)Cc1c(C(=O)c2cc(Cl)ccn2)[nH]c2ccc(Cl)cc12` [Example 90, [5-Chloro-2-(4-chloropyridine-2-carbonyl)-1H-indol-3-yl]acetic Acid] gave a melting point of 243 to 244 °C.

For `O=C(O)Cc1c(C(=O)c2cccnc2)[nH]c2cc(Cl)ccc12` [Example 92, [6-Chloro-2-(pyridine-3-carbonyl)-1H-indol-3-yl]acetic Acid], the melting point was 267 to 268 °C.

`O=C(O)Cc1c(C(=O)c2ccncc2)[nH]c2cc(Cl)ccc12` [Example 94, [6-Chloro-2-(pyridine-4-carbonyl)-1H-indol-3-yl]acetic Acid] registered a melting point of 256 to 257 °C.

The molecule `O=C(O)Cc1c(C(=O)c2cc(CO)ccn2)[nH]c2cc(Cl)ccc12` [Example 96, [6-Chloro-2-[4-(hydroxymethyl)pyridine-2-carbonyl]-1H-indol-3-yl]acetic Acid] yielded a melting point of 210 to 212 °C.

`O=C(O)Cc1c(C(=O)c2cc(CO)ccn2)[nH]c2ccc(Cl)cc12` [Example 98, [5-Chloro-2-[4-(hydroxymethyl)pyridine-2-carbonyl]-1H-indol-3-yl]acetic Acid] came in with a melting point of 218 to 219 °C.

With `Cc1ccnc(C(=O)c2[nH]c3ccc(Cl)cc3c2CC(=O)O)c1C` [Example 100, [5-Chloro-2-(3,4-dimethylpyridine-2-carbonyl)-1H-indol-3-yl]acetic Acid], the melting point is 236 to 237 °C.

`Cc1cnc(C(=O)c2[nH]c3ccc(Cl)cc3c2CC(=O)O)cc1C` [Example 102, [5-Chloro-2-(4,5-dimethylpyridine-2-carbonyl)-1H-indol-3-yl]acetic Acid] gave a melting point of 245 to 246 °C.

`Cc1cnc(C(=O)c2[nH]c3cc(Cl)ccc3c2CC(=O)O)cc1C` [Example 104, [6-Chloro-2-(4,5-dimethylpyridine-2-carbonyl)-1 H-indol-3-yl]acetic Acid] yielded a melting point of 226 to 228 °C.

For the molecule `COc1ccnc(C(=O)c2[nH]c3cc(Cl)ccc3c2CC(=O)O)c1` [Example 106, [6-Chloro-2-(4-methoxypyridine-2-carbonyl)-1H-indol-3-yl]acetic Acid], the melting point is 213 °C (dec.).

With `Cc1cnc(C(=O)c2[nH]c3cc(Cl)ccc3c2CC(=O)O)c(C)c1` [Example 110, [6-Chloro-2-(3,5-dimethylpyridine-2-carbonyl)-1H-indol-3-yl]acetic Acid], the melting point was in the range of 199 to 200 °C.

On to `CCc1ccnc(C(=O)c2[nH]c3ccc(Cl)cc3c2CC(=O)O)c1F` [Example 112, [5-Chloro-2-(4-ethyl-3-fluoropyridine-2-carbonyl)-1H-indol-3-yl]acetic Acid], for which the melting point stood at 208 °C.

Molecule `Cc1cc(C)nc(C(=O)c2[nH]c3ccc(Cl)cc3c2CC(=O)O)c1` [Example 120, [5-Chloro-2-(4,6-dimethylpyridine-2-carbonyl)-1H-indol-3-yl]acetic Acid] displayed a melting point of 233 to 235 °C.

Take `O=C(O)Cc1c(C(=O)c2ccc(Cl)c(F)c2)[nH]c2cc(Cl)ccc12` [Example 204, [6-Chloro-2-(4-chloro-3-fluorobenzoyl)-1H-indol-3-yl]acetic Acid]: the melting point lay in the range of 179 to 182 °C.

Source of the values: patent publication US6608070B1, “2,3-substituted indole compounds as anti-inflammatory and analgesic agents” (priority 1999, dated 2003).
